Assay: gradient 5% acetonitrile 3 min, to 50% in 2 min, to 85% in 15 min, held 3 min, 100 µL/min
Conditions: column: Zorbax Extend-C18 2.1 x 50 mm; eluents: water / acetonitrile, 0.1% formic acid
In short: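 Pure standards were analyzed in mixtures of ~100 molecules using HPLC coupled to a quadrupole time-of-flight mass spectrometer, in both positive and negative ionization mode. Separation used a Zorbax Extend-C18 column (2.1 × 50 mm, 1.8 μm) at 100 μL/min, with water and acetonitrile each containing 0.1% formic acid. Dead and dwell volumes were 40 μL and 900 μL, and data were collected over 3 months. Retention time was read from computationally picked adduct peaks, each inspected manually.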

Row | SMILES | RP-LC retention time
1 | Cc1onc(-c2ccccc2Cl)c1C(=O)NC1CC(=O)N(C2CC2)C1 (configuration not stated) | 636 s
2 | CCN1CCN(C(=O)c2cn(-c3cc(N4CCSCC4)ncn3)cn2)CC1 | 605 s
3 | Cc1nc(-c2ccc(C(=O)N3CCCc4ccccc43)cc2)no1 | 929 s
4 | Cc1cccc(Nc2c(-c3ccc4c(c3)OCO4)nc3cnccn23)c1C | 928 s
5 | CCCNc1nnc(-c2nnc(CC)o2)c2ccccc12 | 647 s
6 | O=C(c1ccc(F)c(Cl)c1)N1CCC(n2c(-c3ccco3)nc3cccnc32)C1 (configuration not stated) | 800 s
7 | CCN1CCN(c2ccc(-c3ccc(OC)c(S(=O)(=O)N4CCCC4)c3)nn2)CC1 | 606 s
8 | O=C(Nc1ccc(F)c(Cl)c1)C1CCCN(S(=O)(=O)c2c[nH]c(C(=O)N3CCCC3)c2)C1 (configuration not stated) | 876 s
9 | O=C(CSc1ccc(N2CCCC(C(=O)NC3CC3)C2)nn1)NCc1ccc(C(F)(F)F)cc1 (configuration not stated) | 694 s
10 | O=C(c1ccccn1)N1CCCC(c2n[nH]c(C3CC3)n2)C1 (configuration not stated) | 542 s
11 | c1cn(-c2ccc(-c3noc(-c4ccc5c(c4)OCO5)n3)cn2)cn1 | 853 s
12 | CCc1ccc(NC(=O)c2c(C)sc3ncnc(N4CCCC4)c23)cc1 | 975 s
13 | O=S(=O)(c1ccc(F)cc1F)N1CCc2nc(-c3ccc(Cl)cc3)ncc2C1 | 1200 s
14 | Cc1ccccc1OCC(=O)Nc1ccc2c(c1)N(S(=O)(=O)c1ccccc1)CCC2 | 1030 s
15 | CCN1C(=O)CCc2cc(NC(=O)c3ccc(C)s3)ccc21 | 800 s
16 | COc1cccc(CC(=O)N2CCN3CCS(=O)(=O)N(C4CC4)C(=O)C3C2)c1 (configuration not stated) | 747 s
17 | O=C(c1cscn1)N1CCc2nn(CC3CC3)c(=O)n2CC1 | 610 s
18 | CC1CCN(S(=O)(=O)c2nn(Cc3ccccc3)cc2C(=O)O)CC1 | 882 s
19 | Cc1noc(C2CN(C(=O)c3n[nH]c4ccccc34)CC23CCOCC3)n1 (configuration not stated) | 665 s

Row | SMILES | RP-LC retention time
20 | Cc1cc(NC(=O)c2nc3ccccc3s2)n(C(C)C)n1 | 806 s
21 | COCCC1CCN(C(=O)CN(C)C(=O)c2ccnn2C)CC1 | 586 s
22 | Cc1cccc(-c2nc(C3CCN(S(=O)(=O)c4ccc(F)cc4)CC3)no2)c1 | 1110 s
23 | CN(C)C(CNC(=O)C(=O)NCc1ccc2c(c1)OCO2)c1ccsc1 (configuration not stated) | 556 s
24 | CCCc1ccc(S(=O)(=O)N2CCC(OCc3noc(C4CCCO4)n3)CC2)cc1 (configuration not stated) | 987 s
25 | O=C(Cc1csc(NC(=O)C2CCC(=O)N2)n1)NCCC1=CCCCC1 (configuration not stated) | 643 s
26 | Cc1nc2cccnc2n1-c1cccc(C(=O)N2CCN(c3ccccn3)CC2)c1 | 568 s
27 | COCC(=O)N1CC2CN(S(=O)(=O)c3cccc(F)c3)CC(C1)O2 | 660 s
28 | CCNc1ccccc1C(=O)O | 782 s
29 | COCCOCc1nc(C2CCN(S(=O)(=O)c3cccc4nsnc34)C2)no1 (configuration not stated) | 769 s
30 | CC1=C(c2ccc(F)cc2)S(=O)(=O)N=C1N1CCCN(C(=O)NCC(C)C)CC1 | 793 s
31 | CCCNC(=O)c1cccc2c1CCN2C(C)=O | 633 s
32 | Cc1cccc(-c2noc(Cn3c(=O)n(Cc4ccco4)c(=O)c4ccccc43)n2)c1 | 1090 s
33 | COc1ccc(NC(=O)Cn2c(=O)c3cc(-c4ccco4)nn3c3ncccc32)cc1Cl | 822 s
34 | CC(Cc1ccco1)NC(=O)C1CCN(S(=O)(=O)c2ccc3c(c2)NC(=O)CO3)CC1 (configuration not stated) | 726 s
35 | CC(C)CN1CCN(C(=O)c2cnc(-c3ccccc3)nc2-c2ccncc2)CC1 | 646 s
36 | O=C(CN1CCc2ccccc2C1C(=O)N1CCCC1)Nc1ccc(Cl)cc1 (configuration not stated) | 860 s
37 | CCCS(=O)(=O)c1nc2ccc(NS(=O)(=O)Cc3ccc(Cl)cc3)cc2s1 | 953 s
